Values after ≈ are worked out from the molar mass of the structure shown.
Assays:
Assay in all cases: Microdilution MIC assay (NCCLS M7-A)
Format in all cases: cell-based
[1] = test system: Staphylococcus aureus SG 511; details: strain SG511
Description: (§1) The antibacterial activity was tested by a microdilution assay according to National Committee for Clinical Laboratory Standards, 1998, Methods for dilution antimicrobial susceptibility tests for bacteria that grow aerobically, Approved standard M7-A, NCCLS, Villanova, Pa.
(§2) The minimal inhibition concentrations (MICs) were determined for the following bacterial strains: The Gram-negative strains Pseudomonas aeruginosa SG 137, ATCC 27853, Escherichia coli ATCC 25922, Klebsiella pneumoniae ATCC 10031, Stenotrophomonas maltophilia GN 12873, Serratia marcescens SG 621 as well as for the Gram-positive strain Staphylococcus aureus SG 511.

[2] = test system: Pseudomonas aeruginosa ATCC 27853; details: strain ATCC 27853
Description: as §1, §2

[3] = test system: Klebsiella pneumoniae ATCC 10031; details: strain ATCC10031
Description: as §1, §2

[4] = test system: Pseudomonas aeruginosa SG 137; details: strain SG137
Description: as §1, §2

[5] = test system: Escherichia coli ATCC 25922; details: strain ATCC 25922
Description: as §1, §2

[6] = test system: Serratia marcescens SG 621; details: strain SG621
Description: as §1, §2

[7] = test system: Stenotrophomonas maltophilia GN 12873; details: strain GN12873
Description: as §1, §2

SMILES	MIC Staph. aureus SG511 [1] [µg/mL]	MIC Pseudomonas aeruginosa ATCC 27853 [2] [µg/mL]	MIC Klebsiella pneumoniae ATCC10031 [3] [µg/mL]	MIC Pseudomonas aeruginosa SG137 [4] [µg/mL]	MIC E. coli ATCC 25922 [5] [µg/mL]	MIC Serratia marc. SG621 [6] [µg/mL]	MIC Stenotroph. maltoph. GN12873 [7] [µg/mL]
CC(=O)Oc1cccc(C(=O)NCCCCCCN(CCCCCCN(CC(=O)NC(C(=O)NC2C(=O)N3C2SC(C)(C)C3C(=O)O)c2ccccc2)C(=O)c2cccc(OC(C)=O)c2OC(C)=O)C(=O)c2cccc(OC(C)=O)c2OC(C)=O)c1OC(C)=O (centres unmarked) [Example 2, N-[3,10,17-Tris-(2,3-diacetoxybenzoyl)-3,10,17-triaza-heptadecanoyl]-ampicillin]	6.25 (≈ 4.94 µM)	3.125 (≈ 2.47 µM)	0.4 (≈ 0.316 µM)	<0.05	0.4 (≈ 0.316 µM)	–	–
CC(=O)Oc1cccc(C(=O)NCCCN(CCN(CCCN(Cc2ccc(C(=O)N[C@@H](C(=O)N[C@@H]3C(=O)N4[C@@H]3SC(C)(C)[C@@H]4C(=O)O)c3ccccc3)cc2)C(=O)c2cccc(OC(C)=O)c2OC(C)=O)C(=O)c2cccc(OC(C)=O)c2OC(C)=O)C(=O)c2cccc(OC(C)=O)c2OC(C)=O)c1OC(C)=O [Example 20, N-{4-[2,6,9,13-Tetrakis-(2,3-diacetoxybenzoyl)-2,6,9,13-tetraaza-tridecyl]-benzoyl}-ampicillin]	6.25 (≈ 4.11 µM)	1.56 (≈ 1.03 µM)	0.78 (≈ 0.513 µM)	0.4 (≈ 0.263 µM)	1.56 (≈ 1.03 µM)	1.56 (≈ 1.03 µM)	0.2 (≈ 0.132 µM)
CC(=O)Oc1cccc(C(=O)NCCCCN(CC(=O)N[C@@H](C(=O)N[C@@H]2C(=O)N3[C@@H]2SC(C)(C)[C@@H]3C(=O)O)c2ccccc2)C(=O)c2cccc(OC(C)=O)c2OC(C)=O)c1OC(C)=O [Example 10, N-[3,8-Bis-(2,3-diacetoxybenzoyl)-3,8-diaza-octanoyl]-ampicillin]	3.12 (≈ 3.4 µM)	0.05 (≈ 0.0545 µM)	<0.005	<0.005	<0.005	<0.005	<0.005
CC(=O)Oc1cccc(C(=O)NCCCN(CC(=O)NC(C(=O)NC2C(=O)N3C2SC(C)(C)C3C(=O)O)c2ccccc2)C(=O)c2cccc(OC(C)=O)c2OC(C)=O)c1OC(C)=O (centres unmarked) [Example 24, N-[3,7-Bis-(2,3-diacetoxybenzoyl)-3,7-diaza-heptanoyl]-ampicillin]	3.12 (≈ 3.45 µM)	3.12 (≈ 3.45 µM)	0.2 (≈ 0.221 µM)	3.12 (≈ 3.45 µM)	3.12 (≈ 3.45 µM)	0.78 (≈ 0.863 µM)	0.2 (≈ 0.221 µM)
COc1ccc(CN(CCCCNC(=O)c2cccc(OC(C)=O)c2OC(C)=O)C(=O)c2cccc(OC(C)=O)c2OC(C)=O)c(C(=O)N[C@@H](C(=O)N[C@@H]2C(=O)N3[C@@H]2SC(C)(C)[C@@H]3C(=O)O)c2ccccc2)c1OC [Example 21, N-{6-[2,7-Bis-(2,3-Diacetoxybenzoyl)-2,7-diaza-heptyl]-2,3-dimethoxy-benzoyl}-ampicillin]	0.2 (≈ 0.19 µM)	12.5 (≈ 11.9 µM)	0.4 (≈ 0.379 µM)	0.78 (≈ 0.74 µM)	3.12 (≈ 2.96 µM)	1.56 (≈ 1.48 µM)	0.2 (≈ 0.19 µM)
CC(=O)Oc1cccc(C(=O)N(C)CCCN(Cc2ccccc2C(=O)N[C@@H](C(=O)N[C@@H]2C(=O)N3[C@@H]2SC(C)(C)[C@@H]3C(=O)O)c2ccccc2)C(=O)c2cccc(OC(C)=O)c2OC(C)=O)c1OC(C)=O [Example 19, N-{2-[2,6-Bis-(2,3-diacetoxybenzoyl)-2,6-diaza-heptyl]-benzoyl}-ampicillin]	1.56 (≈ 1.57 µM)	3.12 (≈ 3.14 µM)	0.1 (≈ 0.101 µM)	0.1 (≈ 0.101 µM)	0.78 (≈ 0.785 µM)	0.78 (≈ 0.785 µM)	0.2 (≈ 0.201 µM)
CC(=O)Oc1cccc(C(=O)NCCN(CCNC(=O)c2cccc(OC(C)=O)c2OC(C)=O)CCN(CC(=O)NC(C(=O)NC2C(=O)N3C2SC(C)(C)C3C(=O)O)c2ccccc2)C(=O)c2cccc(OC(C)=O)c2OC(C)=O)c1OC(C)=O (centres unmarked) [Example 13, N-{[6-Bis-2,3-(diacetoxybenzoyl)-2-aminoethyl]-3-(2,3-diacetoxybenzoyl)-3,6-diaza-hexanoyl}-ampicillin]	1.56 (≈ 1.3 µM)	3.12 (≈ 2.61 µM)	0.1 (≈ 0.0836 µM)	0.1 (≈ 0.0836 µM)	0.78 (≈ 0.652 µM)	0.78 (≈ 0.652 µM)	0.2 (≈ 0.167 µM)
CC(=O)Oc1cccc(C(=O)NCCCCCN(CC(=O)NC(C(=O)NC2C(=O)N3C2SC(C)(C)C3C(=O)O)c2ccccc2)C(=O)c2cccc(OC(C)=O)c2OC(C)=O)c1OC(C)=O (centres unmarked) [Example 25, N-[3,9-Bis-(2,3-diacetoxybenzoyl)-3,9-diaza-nonanoyl]-ampicillin]	2.5 (≈ 2.68 µM)	0.16 (≈ 0.172 µM)	<0.005	0.04 (≈ 0.0429 µM)	0.16 (≈ 0.172 µM)	0.04 (≈ 0.0429 µM)	0.02 (≈ 0.0215 µM)
CC(=O)Oc1cccc(C(=O)N(C)CCCN(CC(=O)N[C@@H](C(=O)N[C@@H]2C(=O)N3[C@@H]2SC(C)(C)[C@@H]3C(=O)O)c2ccccc2)C(=O)c2cccc(OC(C)=O)c2OC(C)=O)c1OC(C)=O [Example 9, N-[3,7-Bis-(2,3-diacetoxybenzoyl)-3,7-diaza-octanoyl]-ampicillin]	3.12 (≈ 3.4 µM)	0.08 (≈ 0.0872 µM)	<0.005	0.005 (≈ 0.00545 µM)	0.02 (≈ 0.0218 µM)	0.05 (≈ 0.0545 µM)	0.02 (≈ 0.0218 µM)
CC(=O)Oc1cccc(C(=O)NCCCCN(CC(=O)NC(C(=O)NC2C(=O)N3C2SC(C)(C)C3C(=O)O)c2ccc(O)cc2)C(=O)c2cccc(OC(C)=O)c2OC(C)=O)c1OC(C)=O (centres unmarked) [Example 11, N-[3,8-Bis-(2,3-diacetoxybenzoyl)-3,8-diaza-octanoyl]-amoxicillin]	3.12 (≈ 3.34 µM)	0.1 (≈ 0.107 µM)	<0.005	0.01 (≈ 0.0107 µM)	0.01 (≈ 0.0107 µM)	<0.005	<0.005
CCOC(=O)OC(C)OC(=O)[C@@H]1N2C(=O)[C@@H](NC(=O)[C@H](NC(=O)CN(CCCCCCN(CCCCCCNC(=O)c3cccc(OC(C)=O)c3OC(C)=O)C(=O)c3cccc(OC(C)=O)c3OC(C)=O)C(=O)c3cccc(OC(C)=O)c3OC(C)=O)c3ccccc3)[C@H]2SC1(C)C (some centres unmarked) [Example 5, N-[3,10,17-Tris-(2,3-diacetoxybenzoyl)-3,10,17-triaza-heptadecanoyl]-bacampicillin]	–	25 (≈ 18.1 µM)	0.2 (≈ 0.145 µM)	25 (≈ 18.1 µM)	100 (≈ 72.4 µM)	0.4 (≈ 0.29 µM)	50 (≈ 36.2 µM)
CC(=O)Oc1cccc(C(=O)NCCCCCCN(CCCCCCN(CC(=O)NC(C(=O)NC2C(=O)N3C(C(=O)O)=C(Cl)CSC23)c2ccccc2)C(=O)c2cccc(OC(C)=O)c2OC(C)=O)C(=O)c2cccc(OC(C)=O)c2OC(C)=O)c1OC(C)=O (centres unmarked) [Example 4, N-[3,10,17-Tris-(2,3-diacetoxybenzoyl)-3,10,17-triaza-heptadecanoyl]-cefaclor]	6.25 (≈ 4.87 µM)	1.56 (≈ 1.22 µM)	<0.05	0.2 (≈ 0.156 µM)	0.2 (≈ 0.156 µM)	–	50 (≈ 38.9 µM)
